From ChEMBL document CHEMBL3045179, “Mode of Action and QSAR Studies of Nitrification Inhibitors” (J Pestic Sci, 1997)

Experiments:
Nitrosomonas europaea [1] = assay: Inhibition of Nitrosomonas europaea ATCC 25978-mediated nitrification activity assessed as nitrite nitrogen formation after 7 to 10 days by Griess-Ilosvay method; assay type: functional, organism-based; conditions: read-out: pI50 (converted)
[2] = Octanol-water partition coefficient, log P of the compound; assay type: physicochemical
Nitrosomonas europaea [3] = assay: Inhibition of Nitrosomonas europaea ATCC 25978-mediated nitrification activity assessed as nitrite nitrogen formation at 0.1 mg/kg after 7 to 10 days by Griess-Ilosvay method relative to control; assay type: functional; conditions: values are per cent of control
Nitrosomonas sp. TK794 [4] = assay: Inhibition of Nitrosomonas sp. TK794-mediated nitrification activity assessed as nitrite nitrogen formation at 0.5 mg/kg after 7 to 10 days by Griess-Ilosvay method relative to control; assay type: functional
Nitrosomonas sp. TK794 [5] = assay: Inhibition of Nitrosomonas sp. TK794-mediated nitrification activity assessed as nitrite nitrogen formation at 0.1 mg/kg after 7 to 10 days by Griess-Ilosvay method relative to control; assay type: functional
Nitrosomonas sp. TK794 [6] = assay: Inhibition of Nitrosomonas sp. TK794-mediated nitrification activity assessed as nitrite nitrogen formation at 1 mg/kg after 7 to 10 days by Griess-Ilosvay method relative to control; assay type: functional
Nitrosomonas europaea [7] = assay: Inhibition of Nitrosomonas europaea ATCC 25978-mediated nitrification activity assessed as nitrite nitrogen formation at 1 mg/kg after 7 to 10 days by Griess-Ilosvay method relative to control; assay type: functional; conditions: values are per cent of control
Nitrosomonas sp. TK794 [8] = assay: Inhibition of Nitrosomonas sp. TK794-mediated nitrification activity assessed as nitrite nitrogen formation at 5 mg/kg after 7 to 10 days by Griess-Ilosvay method relative to control; assay type: functional
Nitrosomonas europaea [9] = assay: Inhibition of Nitrosomonas europaea ATCC 25978-mediated nitrification activity assessed as nitrite nitrogen formation at 10 mg/kg after 7 to 10 days by Griess-Ilosvay method relative to control; assay type: functional
Nitrosomonas sp. TK794 [10] = assay: Inhibition of Nitrosomonas sp. TK794-mediated nitrification activity assessed as nitrite nitrogen formation at 500 mg/kg after 7 to 10 days by Griess-Ilosvay method relative to control; assay type: functional
Nitrosomonas europaea [11] = assay: Inhibition of Nitrosomonas europaea ATCC 25978-mediated nitrification activity assessed as nitrite nitrogen formation at 400 mg/kg after 7 to 10 days by Griess-Ilosvay method relative to control; assay type: functional
Nitrosomonas europaea [12] = assay: Inhibition of Nitrosomonas europaea ATCC 25978-mediated nitrification activity assessed as nitrite nitrogen formation at 5 mg/kg after 7 to 10 days by Griess-Ilosvay method relative to control; assay type: functional

Row | SMILES | IC50 (Nitrosomonas europaea [1]) [µM] | logP ([2]; read-out: logP) | residual activity at 0.1 mg/kg (Nitrosomonas europaea [3]) [%] | other results
1 | CCCCNc1nc(C(Cl)(Cl)Cl)nc(C(Cl)(Cl)Cl)n1 | 0.977 | 4.72 | 72.4 | –
2 | CNc1nc(-c2ccccc2)nc(C(Cl)(Cl)Cl)n1 | 0.372 | 4.7 | 53.2 | inhibition in vivo at 0.5 mg/kg (Nitrosomonas sp. TK794 [4]): 57.1%
3 | CNc1nc(C(Cl)(Cl)Cl)nc(C(Cl)(Cl)Cl)n1 | 0.589 | 3.14 | 69.6 | –
4 | CCNc1nc(C(Cl)(Cl)Cl)nc(C(Cl)(Cl)Cl)n1 | 0.257 | 3.68 | 52.7 | –
5 | CCNc1nc(OC)nc(C(Cl)(Cl)Cl)n1 | 0.331 | 3.57 | 49.1 | inhibition in vivo at 0.1 mg/kg (Nitrosomonas sp. TK794 [5]): 56.8%
6 | CCCCCCCNc1nc(C)nc(C(Cl)(Cl)Cl)n1 | 0.38 | 6.66 | 44.9 | –
7 | CCCCc1nc(C(Cl)(Cl)Cl)nc(C(Cl)(Cl)Cl)n1 | 0.617 | 5.65 | – | inhibition in vivo at 1 mg/kg (Nitrosomonas sp. TK794 [6]): 33.6%; residual activity at 1 mg/kg (Nitrosomonas europaea [7]): 29.5%
8 | Cc1nc(Nc2ccccc2)nc(C(Cl)(Cl)Cl)n1 | 0.501 | 4.7 | 66 | inhibition in vivo at 1 mg/kg (Nitrosomonas sp. TK794 [6]): 39%
9 | CCCCNc1nc(C)nc(C(Cl)(Cl)Cl)n1 | 1.51 | 5.08 | 79.5 | –
10 | CCCOc1nc(-c2ccccc2)nc(C(Cl)(Cl)Cl)n1 | 3.39 | 6.22 | – | inhibition in vivo at 5 mg/kg (Nitrosomonas sp. TK794 [8]): 47.9%; residual activity at 1 mg/kg (Nitrosomonas europaea [7]): 48.5%
11 | CCCOc1nc(SC)nc(C(Cl)(Cl)Cl)n1 | 0.257 | 5.17 | 47.6 | inhibition in vivo at 1 mg/kg (Nitrosomonas sp. TK794 [6]): 60%
12 | COc1nc(C(Cl)(Cl)Cl)nc(C(Cl)(Cl)Cl)n1 | 0.457 | 3.59 | 27.4 | inhibition in vivo at 1 mg/kg (Nitrosomonas sp. TK794 [6]): 47.8%
13 | COc1nc(C)nc(C(Cl)(Cl)Cl)n1 | – | 3.98 | – | inhibition in vivo at 0.5 mg/kg (Nitrosomonas sp. TK794 [4]): 32%
14 | Cc1nc(N(C)C)nc(C(Cl)(Cl)Cl)n1 | – | 4.07 | – | inhibition in vivo at 1 mg/kg (Nitrosomonas sp. TK794 [6]): 58.7%
15 | COc1nc(-c2ccccc2)nc(C(Cl)(Cl)Cl)n1 | 0.229 | 5.17 | 31.4 | inhibition in vivo at 1 mg/kg (Nitrosomonas sp. TK794 [6]): 39%
16 | CN(C)c1nc(-c2ccccc2)nc(C(Cl)(Cl)Cl)n1 | 1.7 | 5.4 | – | inhibition in vivo at 5 mg/kg (Nitrosomonas sp. TK794 [8]): 43%; residual activity at 1 mg/kg (Nitrosomonas europaea [7]): 40.1%
17 | CCNc1nc(-c2ccccc2)nc(C(Cl)(Cl)Cl)n1 | 0.38 | 5.23 | 45.3 | inhibition in vivo at 0.5 mg/kg (Nitrosomonas sp. TK794 [4]): 47.8%
18 | CN(C)c1nc(C(Cl)(Cl)Cl)nc(C(Cl)(Cl)Cl)n1 | – | 3.7 | – | inhibition in vivo at 0.5 mg/kg (Nitrosomonas sp. TK794 [4]): 60.5%
19 | CCCCCCCCCCCCNc1nc(C)nc(C(Cl)(Cl)Cl)n1 | 45.7 | – | – | inhibition in vivo at 10 mg/kg (Nitrosomonas europaea [9]): 69.4%; logP [2]: 9.3; inhibition in vivo at 500 mg/kg (Nitrosomonas sp. TK794 [10]): 33.2%
20 | CCCCCCCCCCCCCCCCNc1nc(C)nc(C(Cl)(Cl)Cl)n1 | – | – | – | inhibition in vivo at 400 mg/kg (Nitrosomonas europaea [11]): 45.2%; logP [2]: 11.4; inhibition in vivo at 500 mg/kg (Nitrosomonas sp. TK794 [10]): 81%
21 | CCCCCNc1nc(C)nc(C(Cl)(Cl)Cl)n1 | 0.501 | 5.61 | 61.5 | –
22 | CCCCCCNc1nc(C(Cl)(Cl)Cl)nc(C(Cl)(Cl)Cl)n1 | 1.66 | 5.79 | – | residual activity at 1 mg/kg (Nitrosomonas europaea [7]): 42.7%
23 | CCCNc1nc(C(Cl)(Cl)Cl)nc(C(Cl)(Cl)Cl)n1 | 0.219 | 4.19 | 60 | –
24 | CCCCCCCCCCCCNc1nc(C(Cl)(Cl)Cl)nc(C(Cl)(Cl)Cl)n1 | 5.75 | 8.96 | – | inhibition in vivo at 5 mg/kg (Nitrosomonas europaea [12]): 50%; inhibition in vivo at 5 mg/kg (Nitrosomonas sp. TK794 [8]): 55.2%
25 | CCCCCCCCCCNc1nc(C(Cl)(Cl)Cl)nc(C(Cl)(Cl)Cl)n1 | 10.5 | 7.9 | – | inhibition in vivo at 10 mg/kg (Nitrosomonas europaea [9]): 36.8%
26 | Nc1nc(C(Cl)(Cl)Cl)nc(C(Cl)(Cl)Cl)n1 | – | 2.45 | – | inhibition in vivo at 1 mg/kg (Nitrosomonas sp. TK794 [6]): 56.2%
